The text below walks through data of patent US20260258048A1, “LACTAM-CONTAINING IMIDAZOPYRIDAZINE IL-17 INHIBITOR COMPOUNDS” (Janssen Pharmaceutica NV, priority 2023, published 2026).

Test [1] concerns the target IL-17A(FLAG-tagged): IL-17RA(His-tagged) (Homo sapiens, UniProt Q16552, K93Q). As to the kind of experiment: IL-17A(FLAG-tagged): IL-17RA(His-tagged) binding disruption Eu-HTRF assay. An excerpt:
IL-17A(FLAG-tagged): IL-17RA(His-tagged) binding disruption Eu-HTRF assay An antibody directed against the FLAG tag of IL-17A (SEQ ID NO: 1) is labeled with the HTRF donor chromophore (Europium-cryptate). IL-17A is present as a dimer that is “locked into” this quaternary structure due to the formation of loop-spanning intramolecular disulfide bridges. The construct of IL-17RA used in the assay excludes the […] portion of the receptor and is fused to a C-terminal 10×His tag (SEQ ID NO:2). An antibody directed against the His tag of the IL-17RA chimera is labeled with the HTRF acceptor chromophore (“D2”). The fluorescence-resonance energy transfer (FRET) depends on the vicinity of the donor chromophore to the acceptor, and interruption of the binding between the IL-17A and IL-17RA causes the reduction/loss of FRET. Therefore, this assay allows to evaluate the compound effect on the binding IL-17A and IL-17RA by monitoring the fluorescence intensity of donor vs acceptor. The assay is run as described below.
40 nl of 2-fold serial diluted compound solution for total 22 dilution points is added into each well of a 1536-well, white, low-volume, non-binding plate (Greiner #782904), then 2 μl of FLAG tagged IL-17A at 2× final concentration (1 μM) in solution of PBS+0.01% Triton-X100 is added to each well. The assay plate is briefly centrifuged then incubated for 1 h at rt. A mixed solution is prepared containing 2×5 nM 10HIS×IL-17RA, 2×2.5 nM Eu-anti-FLAG (CISBIO), 2×5 nM D2-anti-HIS (CISBIO) in PBS+0.01% Triton-X100+200 mM Potassium Fluoride (Sigma 60238) and 2 μl of mix is added to each well of the assay plate. The plate is briefly centrifuged then incubated for 2 h at rt. The HTRF intensities at the wavelength of donor (615 nm) and acceptor (665 nm) are measured using BMG Pherastar. The ratio between intensities at two wavelengths is calculated and plotted against the compound concentration and the data is fitted to a one-site competition model to yield IC50 of the compound.
On the technique in general: In TR-FRET formats the signal depends on donor and acceptor labels being close together.

Test [2] concerns IL-17A-induced G-CSF production in human normal keratinocyte (NHK). As to the kind of experiment: NHK assay: IL-17A-induced G-CSF production in normal human keratinocytes. Format: cell-based. The conditions noted are these: 24 h, IL-17A 5 ng/mL. The gist of the method:
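Adult keratinocytes at 3000-4000 cells/well; recombinant human IL-17A pre-incubated 1 h at rt with titrated compound, then added to cells (final 5 ng/mL IL-17A, 0.2% DMSO, 5% FBS) for 24 h at 37 °C. Supernatant G-CSF quantified by HTRF against a standard curve to give IC50; viability checked by CellTiter-Glo versus DMSO.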

[3] abbreviates: class of the average IC50 where tested more than once.
The mark [4] stands for this setting: Homo sapiens, Keratinocyte, class of the average IC50 where tested more than once.

Sequence of UniProt Q16552 (Q16552 with tags, fused parts or gaps K93Q): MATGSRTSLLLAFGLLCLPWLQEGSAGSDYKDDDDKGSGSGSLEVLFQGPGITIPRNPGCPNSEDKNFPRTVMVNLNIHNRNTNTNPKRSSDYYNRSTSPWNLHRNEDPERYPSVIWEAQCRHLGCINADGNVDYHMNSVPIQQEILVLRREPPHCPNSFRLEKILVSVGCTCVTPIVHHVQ

In general, IC50 refers to the point on the concentration scale where inhibition reaches its midpoint. In the case of `O=C(N[C@H](c1cn2ncc(C[C@H]3C[C@@H](C(F)(F)F)NC3=O)cc2n1)C1CCC(F)(F)CC1)c1nonc1C1CC1` (relative stereo) [Example 71, 4-Cyclopropyl-N—((S)-(4,4-difluorocyclohexyl)(7-(((3S*,5S*)-2-oxo-5-(trifluoromethyl)pyrrolidin-3-yl)methyl)imidazo[1,2-b]pyridazin-2-yl)methyl)-1,2,5-oxadiazole-3-carboxamide], the IC50 was 400 to 4000 nM in test [1] (setting [3]) and more than 4000 nM in test [2] (setting [4]).
Take `CC1(Cc2cnn3cc([C@@H](NC(=O)c4nonc4C4CC4)C4CCC(F)(F)CC4)nc3c2)CCNC1=O` (single isomer, unassigned) [Example 53, 4-Cyclopropyl-N—((S)-(4,4-difluorocyclohexyl)(7-(((R*)-3-methyl-2-oxopyrrolidin-3-yl)methyl)imidazo[1,2-b]pyridazin-2-yl)methyl)-1,2,5-oxadiazole-3-carboxamide]: the IC50 in test [1] (setting [3]) and in test [2] (setting [3]) was 400 to 4000 nM throughout.
As for `C[C@@H]1C[C@H](Cc2cnn3cc([C@@H](NC(=O)c4nonc4C4CC4)C4CCC(F)(F)CC4)nc3c2)C(=O)N1` (relative stereo) [Example 85, 4-Cyclopropyl-N—((S)-(4,4-difluorocyclohexyl(7-(((3S*,5R*)-5-methyl-2-oxopyrrolidin-3-yl)methyl)imidazo[1,2-b]pyridazin-2-yl)methyl)-1,2,5-oxadiazole-3-carboxamide], the concentration for half-maximal inhibition (IC50) in test [1] (setting [3]) was 400 to 4000 nM; in test [2] (setting [4]), more than 4000 nM.
The like results for `O=C(N[C@H](c1cn2ncc(CC3CCNC3=O)cc2n1)C1CCC(F)(F)CC1)c1nonc1C1CC1` (single isomer, unassigned) [Example 21, 4-Cyclopropyl-N—[(S)-(4,4-difluorocyclohexyl)-[7-[[(3R*)-2-oxopyrrolidin-3-yl]methyl]imidazo[1,2-b]pyridazin-2-yl]methyl]-1,2,5-oxadiazole-3-carboxamide] were, in that order, 400 to 4000 nM and more than 4000 nM.
The like results for `O=C(N[C@H](c1cn2ncc(C[C@@H]3C(=O)NC[C@@H]3C(F)(F)F)cc2n1)C1CCC(F)(F)CC1)c1nonc1C1CC1` (relative stereo) [Example 49, 4-Cyclopropyl-N—((S)-(4,4-difluorocyclohexyl)(7-(((3S*,4R*)-2-oxo-4-(trifluoromethyl)pyrrolidin-3-yl)methyl)imidazo[1,2-b]pyridazin-2-yl)methyl)-1,2,5-oxadiazole-3-carboxamide] were, in that order, 400 to 4000 nM and more than 4000 nM.
The like results for `C[C@H](c1cnn2cc([C@@H](NC(=O)c3nonc3C3CC3)C3CCC(F)(F)CC3)nc2c1)[C@@H]1C[C@@H](C(F)(F)F)NC1=O` (relative stereo) [Example 81, 4-Cyclopropyl-N—((S)-(4,4-difluorocyclohexyl)(7-((S*)-1-((3S*,5S)-2-oxo-5-(trifluoromethyl)pyrrolidin-3-yl)ethyl)imidazo[1,2-b]pyridazin-2-yl)methyl)-1,2,5-oxadiazole-3-carboxamide] were, in that order, less than 400 nM and less than 400 nM.
For the compound `O=C(N[C@H](c1cn2ncc([C@@H](O)[C@H]3C[C@@H](C(F)(F)F)NC3=O)cc2n1)C1CCC(F)(F)CC1)c1nonc1C1CC1` (relative stereo) [Example 73], the IC50 in test [1] (setting [3]) and in test [2] (setting [4]) was 400 to 4000 nM in each case.
As for `O=C(N[C@H](c1cn2ncc(CC3CC4(COC4)NC3=O)cc2n1)C1CCC(F)(F)CC1)c1nonc1C1CC1` (stereo partly drawn) [Example 98, 4-Cyclopropyl-N-((1S)-(4,4-difluorocyclohexyl)(7-((6-oxo-2-oxa-5-azaspiro[3.4]octan-7-yl)methyl)imidazo[1,2-b]pyridazin-2-yl)methyl)-1,2,5-oxadiazole-3-carboxamide], the IC50 in test [1] (setting [3]) and in test [2] (setting [4]) was more than 4000 nM in each case.
Turning to `O=C(N[C@H](c1cn2ncc(C[C@@H]3C[C@@H](C(F)(F)F)NC3=O)cc2n1)C1CCC(F)(F)CC1)c1nonc1C1CC1` (relative stereo) [Example 70, 4-Cyclopropyl-N—((S)-(4,4-difluorocyclohexyl)(7-(((3R*,5S*)-2-oxo-5-(trifluoromethyl)pyrrolidin-3-yl)methyl)imidazo[1,2-b]pyridazin-2-yl)methyl)-1,2,5-oxadiazole-3-carboxamide], the IC50 in test [1] (setting [3]) and in test [2] (setting [4]) was less than 400 nM in each case.
On to `O=C(N[C@H](c1cn2ncc(CC3CCCCNC3=O)cc2n1)C1CCC(F)(F)CC1)c1nonc1C1CC1` (single isomer, unassigned) [Example 25, 4-Cyclopropyl-N—((S)-(4,4-difluorocyclohexyl(7-(((R*)-2-oxoazepan-3-yl)methyl)imidazo[1,2-b]pyridazin-2-yl)methyl)-1,2,5-oxadiazole-3-carboxamide], for which the IC50 in test [1] (setting [3]) was 400 to 4000 nM; in test [2] (setting [4]), more than 4000 nM.
On to `O=C(N[C@H](c1cn2ncc(C[C@H]3C[C@@H](C(F)(F)F)NC3=O)cc2n1)C1CCC(F)(F)CC1)c1nonc1C1CC1` [Example 59, 4-Cyclopropyl-N—[(S)-(4,4-difluorocyclohexyl)-[7-[[(3S,5S)-2-oxo-5-(trifluoromethyl)pyrrolidin-3-yl]methyl]imidazo[1,2-b]pyridazin-2-yl]methyl]-1,2,5-oxadiazole-3-carboxamide], for which the “potency increase in the HTRF IC50 when compared to its C-3 epimer” value in test [1] ((S)-configuration on C-3 (cis) vs (R)-epimer (trans): Example 51 vs 52, Example 59 vs 60) is “more than 80 fold”. The IC50 in test [1] (setting [3]) is less than 400 nM; in test [1] (value in brackets, Table 4), 14 nM; in test [2] (setting [4]), less than 400 nM; in test [2] (Homo sapiens, Keratinocyte, value in brackets, Table 4), 7.8 nM.
`O=C(N[C@H](c1cn2ncc([C@@H]3C[C@@]34C[C@@H](C(F)(F)F)NC4=O)cc2n1)C1CCC(F)(F)CC1)c1nonc1C1CC1` (relative stereo) [Example 38, 4-Cyclopropyl-N—((S)-(4,4-difluorocyclohexyl)(7-((1S*,3R*,6S)-4-oxo-6-(trifluoromethyl)-5-azaspiro[2.4]heptan-1-yl)imidazo[1,2-b]pyridazin-2-yl)methyl)-1,2,5-oxadiazole-3-carboxamide]: the figures for the IC50 in test [1] (setting [3]) and in test [2] (setting [4]) were less than 400 nM and 400 to 4000 nM, respectively.
On the same counts, the results for `O=C(N[C@H](c1cn2ncc(C[C@@H]3C(=O)NC[C@H]3C(F)(F)F)cc2n1)C1CCC(F)(F)CC1)c1nonc1C1CC1` (relative stereo) [Example 100, 4-Cyclopropyl-N—[(S)-(4,4-difluorocyclohexyl)-[7-[[(3S*,4S*)-2-oxo-4-(trifluoromethyl)pyrrolidin-3-yl]methyl]imidazo[1,2-b]pyridazin-2-yl]methyl]-1,2,5-oxadiazole-3-carboxamide] are 400 to 4000 nM and more than 4000 nM.
The like results for `Cc1nonc1C(=O)N[C@H](c1cn2ncc(CC3(CC#N)C[C@@H](C(F)(F)F)NC3=O)cc2n1)C1CCC(F)(F)CC1` (single isomer, unassigned) [Example 103, N—((S)-(7-(((3S*,5S)-3-(Cyanomethyl)-2-oxo-5-(trifluoromethyl)pyrrolidin-3-yl)methyl)imidazo[1,2-b]pyridazin-2-yl)(4,4-difluorocyclohexyl)methyl)-4-methyl-1,2,5-oxadiazole-3-carboxamide] were, in that order, less than 400 nM and less than 400 nM.
The like results for `O=C(N[C@H](c1cn2ncc(CC3CC4(CC4)NC3=O)cc2n1)C1CCC(F)(F)CC1)c1nonc1C1CC1` (stereo partly drawn) [Example 62, 4-Cyclopropyl-N-((1S)-(4,4-difluorocyclohexyl)(7-((5-oxo-4-azaspiro[2.4]heptan-6-yl)methyl)imidazo[1,2-b]pyridazin-2-yl)methyl)-1,2,5-oxadiazole-3-carboxamide] were, in that order, 400 to 4000 nM and more than 4000 nM.
On to `COc1nonc1C(=O)N[C@@H](CCC(C)(C)C(F)(F)F)c1cn2ncc(CC3C[C@@H](C(F)(F)F)NC3=O)cc2n1` (single isomer, unassigned) [Example 6, 4-Methoxy-N-[(1S)-5,5,5-trifluoro-4,4-dimethyl-1-[7-[[(3S*,5S)-2-oxo-5-(trifluoromethyl)pyrrolidin-3-yl]methyl]imidazo[1,2-b]pyridazin-2-yl]pentyl]-1,2,5-oxadiazole-3-carboxamide], for which the IC50 in test [1] (setting [3]) and in test [2] (setting [3]) was less than 400 nM each time.
